# Test results as given in PMC10117049, “RND Pump-Mediated Efflux of Amotosalen, a Compound Used in Pathogen Inactivation Technology to Enhance Safety of Blood Transfusion Products, May Compromise Its Gram-Negative Anti-Bacterial Activity” (mSphere, 2023).
# Like-named read-outs stand apart in the source and are kept apart here.
# Legend:
# AdeB = AdeB (Acinetobacter baumannii, UniProt Q2FD70); experiment: fluorescence polarization titration using the inherent fluorescence of amotosalen ([…]); type: binding
# A. baumannii = experiment: microbe, parasite or virus in culture; design: Broth microdilution MIC in 384-well plates after UVA exposure (2 J/cm2), A600 growth read-out; settings: Acinetobacter baumannii, 20 h, MDRb=Yes, UVA 365 nm, 2 J/cm2, modal MIC of three or more replicates
# Description: (§1) For MIC determination, bacterial stocks frozen at −80°C were streaked onto tryptic soy agar plates containing 5% sheep blood (Remel), and grown overnight at 35°C in ambient air. Colonies were then suspended in 0.9% saline to 0.5 McFarland, measured using a Densicheck (bioMérieux); diluted 1:300 in cation-adjusted Mueller-Hinton broth (BD); and dispensed into 384-well polystyrene plates (Greiner Bio-One) at 50 μL per well with the following exceptions: For MIC determinations with AG100AX strains containing pAdeC and pAdeAB plasmids, −80°C frozen stocks were inoculated directly into non-cation-adjusted Mueller-Hinton broth containing 100 μg/mL ampicillin, 50 μg/mL nourseothricin, 5 mM calcium chloride, and 5 mM magnesium chloride, with or without adeABC induction using 1% L-arabinose and 1.0 mM Isopropyl β-D-1-thiogalactopyranoside (IPTG), and grown overnight at 37°C in 15 mL conical tubes with continual rotation. Bacterial cultures were then adjusted to 0.5 McFarland and diluted 1:300 in the same medium, and dispensed as above. Induction of other cloned efflux pumps was with 1% L-arabinose (or 0.5% L-arabinose for cloned P. aeruginosa pumps) in the absence of supplemental divalent cations. Lastly, P. aeruginosa PAO1 strains were dispensed into 96-well plates to avoid skipped-well effects observed in 384-well plate format. Filled microplates were centrifuged at 1250 rcf for 4 min to ensure the entire inoculum was in continuity with the bottom of the well. Then, 2-fold doubling dilutions of stock solutions of amotosalen, AMT, or 8-MOP supplemented with 0.3% Tween 20 (Sigma-Aldrich) were dispensed into microwells using the HP D300 digital dispensing system (HP, Inc.), as previously described ([87][–][90]), and the microplates were mixed for 5 min on a microplate shaker to ensure complete mixing of psoralens with the inoculum. Microplates were then exposed to UV light in a UV Stratalinker 1800 (Stratagene), retrofitted with UV BL F8T5 CFL 12-inch UVA 365 nm Blacklight Bulbs (Coolspider), and calibrated according to manufacturer’s instructions with an UVA365 UV Light Meter (Amtast) for a total exposure of 2 Joules/cm^2 of UVA, to approximate exposure during platelet pathogen inactivation ([10]). Testing of control antibiotics was performed in an identical fashion, however, without UVA exposure. After incubation at 35°C for 20 h, the A600 was measured using a TECAN M1000 microplate reader. MICs were determined based on a growth inhibition A600 cutoff of 0.06, which is consistent with our prior determinations of Clinical and Laboratory Standards Institute reference standard equivalent, MIC determinations in 384-well plate format ([88], [90], [91]). […] The concentrations of MgCl2 and CaCl2 used were empirically determined previously to be optimal for efflux of minocycline and ethidium bromide (data not shown).
# Burkholderia cenocepacia = experiment: microbe, parasite or virus in culture; design: Broth microdilution MIC in 384-well plates after UVA exposure (2 J/cm2), A600 growth read-out; settings: Burkholderia cenocepacia, 20 h, MDRb=Unknown, UVA 365 nm, 2 J/cm2, modal MIC of three or more replicates
# Description: as §1
# Burkholderia cepacia = experiment: microbe, parasite or virus in culture; design: Broth microdilution MIC in 384-well plates after UVA exposure (2 J/cm2), A600 growth read-out; settings: Burkholderia cepacia, 20 h, read-out: Amotosalen Modal MIC (mM)a, Strain #=BEI NR-702; MDRb=Unknown; UVA 365 nm, 2 J/cm2; modal MIC of three or more replicates
# Description: as §1
# Burkholderia multivorans = experiment: microbe, parasite or virus in culture; design: Broth microdilution MIC in 384-well plates after UVA exposure (2 J/cm2), A600 growth read-out; settings: Burkholderia multivorans, 20 h, read-out: Amotosalen Modal MIC (mM)a, Strain #=BEI NR-20533; MDRb=Unknown; UVA 365 nm, 2 J/cm2; modal MIC of three or more replicates
# Description: as §1
# E. coli = experiment: microbe, parasite or virus in culture; design: Broth microdilution MIC in 384-well plates after UVA exposure (2 J/cm2), A600 growth read-out; settings: Escherichia coli, 20 h, UVA 365 nm, 2 J/cm2, modal MIC of three or more replicates
# Description: as §1
# K. pneumoniae = experiment: microbe, parasite or virus in culture; design: Broth microdilution MIC in 384-well plates after UVA exposure (2 J/cm2), A600 growth read-out; settings: Klebsiella pneumoniae, 20 h, MDRb=Yes, UVA 365 nm, 2 J/cm2, modal MIC of three or more replicates
# Description: as §1
# P. aeruginosa = experiment: microbe, parasite or virus in culture; design: Broth microdilution MIC in 384-well plates after UVA exposure (2 J/cm2), A600 growth read-out; settings: Pseudomonas aeruginosa, 20 h, UVA 365 nm, 2 J/cm2, modal MIC of three or more replicates
# Description: as §1
# [1] = tested on: Stenotrophomonas maltophilia; experiment: microbe, parasite or virus in culture; design: Broth microdilution MIC in 384-well plates after UVA exposure (2 J/cm2), A600 growth read-out; settings: Stenotrophomonas maltophilia, 20 h, UVA 365 nm, 2 J/cm2, modal MIC of three or more replicates
# Description: as §1
# Chain of AdeB (Q2FD70 entry or part of it): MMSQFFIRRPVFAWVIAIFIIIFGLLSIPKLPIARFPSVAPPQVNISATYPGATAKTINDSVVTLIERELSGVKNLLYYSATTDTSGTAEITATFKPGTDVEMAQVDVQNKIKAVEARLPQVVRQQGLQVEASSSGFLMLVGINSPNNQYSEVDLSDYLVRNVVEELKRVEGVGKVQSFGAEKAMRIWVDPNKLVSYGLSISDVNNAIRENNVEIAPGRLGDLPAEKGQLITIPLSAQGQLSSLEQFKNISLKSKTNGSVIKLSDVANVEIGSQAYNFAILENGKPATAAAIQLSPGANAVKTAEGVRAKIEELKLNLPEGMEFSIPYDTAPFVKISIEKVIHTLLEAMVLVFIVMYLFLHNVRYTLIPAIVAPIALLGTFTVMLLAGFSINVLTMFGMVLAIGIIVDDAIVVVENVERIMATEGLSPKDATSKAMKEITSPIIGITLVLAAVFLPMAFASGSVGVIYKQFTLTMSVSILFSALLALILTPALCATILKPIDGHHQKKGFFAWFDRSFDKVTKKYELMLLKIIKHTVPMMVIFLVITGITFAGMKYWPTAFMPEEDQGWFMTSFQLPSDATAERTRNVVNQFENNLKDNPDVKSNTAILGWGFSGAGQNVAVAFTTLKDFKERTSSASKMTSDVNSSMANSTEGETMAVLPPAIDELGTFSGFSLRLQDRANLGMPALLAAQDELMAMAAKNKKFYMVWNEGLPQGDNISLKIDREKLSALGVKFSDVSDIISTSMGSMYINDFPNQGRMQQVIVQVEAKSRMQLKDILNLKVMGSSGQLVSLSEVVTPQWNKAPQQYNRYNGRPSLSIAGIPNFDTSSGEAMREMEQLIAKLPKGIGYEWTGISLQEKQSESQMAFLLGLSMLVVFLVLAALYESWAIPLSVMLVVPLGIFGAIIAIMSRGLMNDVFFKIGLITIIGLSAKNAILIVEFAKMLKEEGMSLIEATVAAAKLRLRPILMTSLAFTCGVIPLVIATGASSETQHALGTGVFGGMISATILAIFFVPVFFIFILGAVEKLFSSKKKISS
structure (smiles),measurement,setting,value
"Cc1oc2c(C)c3oc(=O)cc(C)c3cc2c1COCCN [amotosalen, 4′-(4-amino-2-oxa)butyl-4,5′,8-trimethylpsoralen]",Kd,AdeB,27.9 ± 1.8 µM
same,MIC,"A. baumannii; read-out: Amotosalen Modal MIC (mM)a, Strain #=FDA-CDC 0292",0.064 mM
same,MIC,"A. baumannii; read-out: Amotosalen Modal MIC (mM)a, Strain #=WRAIR 15067",0.128 mM
same,MIC,"Burkholderia cenocepacia; read-out: Amotosalen Modal MIC (mM)a, Strain #=BEI NR-701",0.128 mM
same,MIC,"Burkholderia cenocepacia; read-out: Amotosalen Modal MIC (mM)a, Strain #=BEI NR-20535",0.256 mM
same,MIC,Burkholderia cepacia,> 0.256 mM
same,MIC,Burkholderia multivorans,> 0.256 mM
same,MIC,"E. coli; read-out: Amotosalen Modal MIC (mM)a, Strain #=ATCC 25922e, MDRb=No",0.008 mM
same,MIC,"E. coli; read-out: Amotosalen Modal MIC (mM)a, Strain #=FDA-CDC 0114, MDRb=Yes",0.128 mM
same,MIC,"E. coli; read-out: Amotosalen Modal MIC (mM)a, Strain #=FDA-CDC 0118, MDRb=Yes",0.064 mM
same,MIC,"K. pneumoniae; read-out: Amotosalen Modal MIC (mM)a, Strain #=FDA-CDC 0113",0.128 mM
same,MIC,"K. pneumoniae; read-out: Amotosalen Modal MIC (mM)a, Strain #=FDA-CDC 0146",0.256 mM
same,MIC,"P. aeruginosa; read-out: Amotosalen Modal MIC (mM)a, Strain #=ATCC 27583e, MDRb=No",< 0.004 mM
same,MIC,"P. aeruginosa; read-out: Amotosalen Modal MIC (mM)a, Strain #=FDA-CDC 229, MDRb=Yes",> 0.256 mM
same,MIC,"P. aeruginosa; read-out: Amotosalen Modal MIC (mM)a, Strain #=FDA-CDC 230, MDRb=Yes",0.128 mM
same,MIC,"P. aeruginosa; read-out: Amotosalen Modal MIC (mM)a, Strain #=FDA-CDC 232, MDRb=Yes",0.256 mM
same,MIC,"[1]; read-out: Amotosalen Modal MIC (mM)a, Strain #=JEK154",0.256 mM
same,MIC,"[1]; read-out: Amotosalen Modal MIC (mM)a, Strain #=JEK155",0.064 mM
